Assay results as given in US10408843B2, “Compositions and methods for detecting S-nitrosylation and S-sulfinylation” (The Regents of the University of Michigan, priority 2013, dated 2019).

Target: T1, Recombinant human GAPDH (Homo sapiens, UniProt P04406)
T1 construct: 6His; made in house; host or cells: E. coli BL21
Experiment: Labeling of recombinant GAPDH (in-gel fluorescence, LC-MS)
Assay type: biochemical
Conditions: biotin-thiosulfonate modified tryptic peptide
Protocol: FIG. 14. Profiling fluorescein-SO2H reactivity and selectivity on S-nitrosylated GAPDH. Recombinant human GAPDH was resuspended in 6 M urea/PBS, treated with 50 mM iodoacetamide for 30 minutes, and mixed with dimedone, ascorbate, peroxide or NO donor (5 minutes). Fluorescein-SO2H (500 μM) was then added to the GAPDH sample for 45 minutes. S-nitrosylated human GAPDH labeling increases upon incubation with the NO donor MAHMA-NONOate, and decreases following treatment with ascorbate. […] Fluorescein-SO2H labeling is unaffected by pre-incubation with peroxide or dimedone.
FIG. 15. Biotin-SO2H reacts with human GAPDH and forms a thiosulfonate. Recombinant human GADPH was labeled with biotin-SO2H for site-specific analysis of S-nitrosylation by high-resolution mass spectrometry.
Given the efficient and selective conjugation of sulfinic acids and nitrosothiols, recombinant human GAPDH were next purified for targeted analysis of S-sulfinylation with biotin-SO2H. […] Biotin-SO2H-labeled GAPDH protein was digested with trypsin and analyzed by high-resolution mass spectrometry, identifying a biotin-thiosulfonate modified peptide encompassing the GAPDH catalytic cysteine (FIG. 15). […] These studies confirm direct detection of native of S-sulfinylation by sulfinic acid probes for mass spectrometry analysis.
Purified human GAPDH was diluted to 0.2 mg/mL in phosphate buffered saline (pH 7.3), and treated with 20 mM iodoacetamide for 30 minutes. Next, the sample was treated with 100 μM biotin-SO2H. Purified human DJ-1 was diluted to 0.2 mg/mL in PBS, and incubated with 20 mM iodoacetamide to alkylated free thiols. Next, the sample was treated with 2 mM hydrogen peroxide for 20 minutes to promote Cys106 sulfinic acid formation. […] Eluted peptides were analyzed using a Waters Synapt G2-S HDMS time-of-flight mass spectrometer in positive mode. […] MS data was searched using Waters Protein Lynx Global Server v3.0 using the exact mass calculated for the cysteine thiosulfonate modification.

T1 sequence (P04406 whole entry): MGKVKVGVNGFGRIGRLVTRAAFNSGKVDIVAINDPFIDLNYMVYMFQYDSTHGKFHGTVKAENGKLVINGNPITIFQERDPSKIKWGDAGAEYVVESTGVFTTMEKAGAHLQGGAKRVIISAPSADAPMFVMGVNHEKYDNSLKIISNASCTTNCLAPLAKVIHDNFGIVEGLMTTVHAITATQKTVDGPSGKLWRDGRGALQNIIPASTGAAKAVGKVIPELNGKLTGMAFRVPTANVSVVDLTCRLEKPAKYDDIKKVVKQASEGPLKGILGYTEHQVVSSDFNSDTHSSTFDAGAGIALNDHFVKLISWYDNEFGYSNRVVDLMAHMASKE

## O=C(CCCC[C@@H]1SC[C@@H]2NC(=O)N[C@@H]21)NCCS(=O)O [biotin-SO2H, 2-(5-((3aS,4S,6aR)-2-oxohexahydro-1H-thieno[3,4-d]imidazol-4-yl)pentanamido)ethanesulfinic Acid]
  modified cysteine of GAPDH identified by MS/MS: Cys156
